One molecule from patent publication US20220142995A1, “DUAL ATM AND DNA-PK INHIBITORS FOR USE IN ANTI-TUMOR THERAPY” (XRAD Therapeutics, Inc., priority 2019, published 2022) can be followed below.

For data set [1], the system named is FADU subcutaneous human xenograft. As to the kind of experiment: In vivo tumor growth delay study, FADU subcutaneous human xenograft mouse model. The source says:
(§1) Tumor Studies. Female NCr nu/nu mice (Crl:NU(NCr)-Foxn1 nu, Strain 490) were obtained from Charles River at 5-6 weeks of age. All animal procedures used in these studies were approved by the Institutional Animal Care and Use Committee (IACUC) at Duke University.
(§2) FADU or MDA-MB-231 cells were harvested during log phase growth for in vivo implantation. The resuspended cells were washed three times in phosphate buffered saline (PBS) before preparing the working dilution in PBS. FADU cells were diluted to 1×10^7 cells/mL and MDA-MB-231 cells were diluted to 5×10^7 cells/mL. Each mouse was injected subcutaneously in the right flank with 100 μL of the cellular suspension. Tumor growth was monitored until the tumors reached a target volume of at least 100 mm^3, at which point mice were randomly stratified into four treatment groups.
Following implantation of the tumor cell lines, mice were monitored once weekly for tumor development. Upon detection, tumors were measured in two dimensions using digital calipers. Tumors were treated after reaching at least 100 mm^3 and were measured two to three times weekly following enrollment in one of the treatment groups. The study endpoint was defined as tumor quintupling from the volume at time of treatment.
The vehicle used in this study was 0.5% (Hydroxypropyl)methyl cellulose (HPMC) and 0.2% Tween80 dissolved in deionized water. The pH of the vehicle was adjusted to 7.0-8.0 and the vehicle was stored at 4° C. […]
In vivo tumor growth delay study was performed as follows. Following implantation of the tumor cell lines, mice were monitored once weekly for tumor development. […]
Statistical and Graphical Analysis of the in vivo data. […] In order to adjust for the differing tumor sizes at the start of treatment, the relative tumor volume was calculated by dividing the tumor volume at each time point by the volume at baseline. […] When an animal exited the study due to tumor quintupling, the final tumor volume recorded for the animal was included with the data used to calculate the median volume at subsequent time points. […]
(In general: In xenograft studies the graft and the host belong to different species.)

Data set [2] relates to pDNA-PK/DNA-PK in FADU tumors. Put plainly: Pharmacodynamic assay, pDNA-PK/DNA-PK in FADU tumors. In kind it is in vivo, mice. The following applies: for pDNA-PK/DNA-PK: FADU tumors.
Excerpt: as §1, §2
The vehicle used in this study was 0.5% (Hydroxypropyl)methyl cellulose (HPMC) and 0.2% Tween80 dissolved in deionized water. The pH of the vehicle was adjusted to 7.0-8.0 and the vehicle was stored at 4° C. On each day of in vivo treatment an appropriate mass of test compound was added to the vehicle at room temperature. The mixture was vortexed as necessary to generate a final concentration of 1.6 mg/mL.
Pharmacodynamic (PD) assays. Tumor studies were performed as follows. Mice bearing FADU or MDA-231 tumors were pre-dosed with vehicle alone or compound 569 alone at 3, 6, and 10 mg/kg. Tumors were then irradiated with 10 Gy 45 min after vehicle or compound 569 administration or left unirradiated (vehicle and compound 569 at 10 mg/kg). Tumors were harvested 1 h post radiation.
Tissue homogenates for pharmacodynamic analyses were collected and processed as follows. Tumor tissues from FADU or MDA-MB-231 tumors were flash frozen in liquid nitrogen and pulverized on dry ice using a tissue pulverizer. A portion of the tumor powder was transferred into a microtube, followed by addition of 500 μL of RIPA buffer [[…], pH 8.0, 150 mM NaCl, 0.1% SDS, 0.5% sodium deoxycholate, 1% IGEPAL® CA-630 (Sigma, 18896)]. To 10 ml of RIPA buffer, 2 tablets each of Protease inhibitor and Phosphatase inhibitor (Roche, #04693159001 & #04906837001), 200 μL of 0.1 M PMSF and 160 μL of Aprotinin, (Sigma, A6279) were added. The suspension was homogenized on ice with a pellet pestle motor (KONTES) and incubated on ice for 30 minutes. Cell lysates were centrifuged at 13,200 rpm for 15 min at 4° C. and supernatants were transferred to a new tube and analyzed for protein concentration with a BCA kit (Pierce, 23227), followed by immunoblotting.

As a reminder, the inhibition is the relative decrease from the control value, in per cent. For the molecule `CC(C)NCCOc1ncc(-c2cc3c4c(cnc3cc2F)N(C)C(=O)C42CCC2)cc1NS(C)(=O)=O` [Compound 569, N-(5-(7′-Fluoro-3′-methyl-2′-oxo-2′,3′-dihydrospiro[cyclobutane-1,1′-pyrrolo[2,3-c]quinolin]-8′-yl)-2-(2-(isopropylamino)ethoxy)pyridin-3-yl)methanesulfonamide], the “tumor growth curves and quintupling-free survival” value in data set [1] (FADU, Group 2 (10 mg/kg qd×3 alone) versus Group 1 (vehicle)) is “nearly identical to those for Group 1”. Also, the “overall survival compared to Group 1, Group 2 and Group 3” value in data set [1] (FADU, Group 4: 10 mg/kg + 3 Gy qd×3, P<0.01, logrank) is “significantly improved”. For the same molecule, in data set [1] (FADU-bearing mice, 10 mg/kg qd×3 alone or with 3 Gy), the tolerability entry is given as “well-tolerated”. Further, the “inhibition of radiation-induced DNA-PK autophosphorylation and KAP1 phosphorylation in tumors” value in data set [2] (FADU and MDA231 tumors, 10 Gy, 3, 6 and 10 mg/kg oral) was “dose-dependent inhibition”. For the same molecule, the pDNA-PK/DNA-PK amounted to 0.938 in data set [2] (10 Gy, 3 mg/kg oral, harvested 1 h post radiation); 0.658 in data set [2] (10 Gy, 6 mg/kg oral, harvested 1 h post radiation); 0.476 in data set [2] (10 Gy, 10 mg/kg oral, harvested 1 h post radiation); 0.343 in data set [2] (no radiation, 10 mg/kg oral). The inhibition at 10 mg/kg in data set [2] (Mus musculus, FADU and MDA231 tumors (FIGS. 4 and 5, Tables 2-5), 10 Gy, 10 mg/kg, read-out: inhibition of tumor levels of radiation-induced autophosphorylation of DNA-PK) was approximately 55%. The “basal phosphorylation of DNA-PK in tumors” value in data set [2] (unirradiated tumors, 10 mg/kg) is “inhibited”.
